From patent publication US10759740B2, “Antibacterial agents” (Rutgers, The State University of New Jersey, priority 2016, dated 2020)

Legend:
[1] = system: Salmonella enterica serovar typhimurium; assay: Broth microdilution assay (MIC); assay type: cell-based; conditions: BHI broth, 37° C., 24 h, no visible growth
Experimental: From the frozen stock (−80° C.), bacteria were inoculated into brain-hear infusion (BHI) agar (Becton Dickinson, Franklin Lakes, N.J.) and propagated under aerobic conditions at 37° C. for 24 h. After the incubation, one colony of each bacterial strain was transferred to BHI broth (Becton Dickinson, Franklin Lakes, N.J.) and sub-cultured at least twice into BHI before being used in experiments.
The minimal inhibitory concentration (MIC) of CAms were identified using a broth microdilution assay modified from previous studies. Briefly, the stock solutions of CAMs were first prepared by dissolving in double-distilled water (ddH2O) and then diluted in BHI broth at pre-determined concentrations. Further serial 2-fold dilutions were performed in a 96-well microplate (Becton Dickinson, Franklin Lakes, N.J.) with BHI broth. The inoculum concentration was adjusted to 5×10^6 CFU/mL with ultraviolet-visible (UV-vis) spectroscopy at 600 nm. An equal volume (100 μL) of bacterial suspension was added to each microplate well with a final volume of 200 μL. Plates were incubated at 37° C. for 24 h under aerobic conditions. The lowest CAm concentration that yielded no visible growth was recorded as the MIC. Cetyltrimethylammonium bromide (CTAB), a cationic amphiphile, served as a positive control that could mimic the proposed bactericidal mechanism of the newly synthesized tartaric acid-based compounds.
CAms were evaluated against five selected pathogenic microorganisms, including Gram-positive bacteria (i.e., S. aureus and L. monocytogenes) and Gram-negative bacteria (i.e., E. coli, S. typhimurium, and P. aeruginosa), using a turbidity-based microdilution method. MICs were taken as the lowest concentrations that inhibited the visible bacterial growth.

L. rhamnosus biofilm = assay: Minimum biofilm bactericidal concentration (MBC-B); assay type: cell-based, Lactobacillus rhamnosus; conditions: pre-formed biofilm, ≥3 log reduction
Experimental: G. vaginalis ATCC 14019 strain was grown overnight in Brain Heart Infusion broth (Difco, Sparks, Md.) supplemented with 3% horse serum (sBHI) (JRH Biosciences, KS), while BHI supplemented with 1% glucose (BHIG) was used for biofilm formation assays. Each experiment using G. vaginalis was performed anaerobically (10% hydrogen, 5% carbon dioxide, and 85% nitrogen) within anaerobic glove boxes (Coy Laboratory Products, Inc., Grass Lake, Mich., USA). Three species of vaginal Lactobacillus were used in this study to evaluate the possible harmful effects of CAms on beneficial bacteria: Lactobacillus plantarum ATCC 39268, Lactobacillus rhamnosus 160 (provided by Dr. Aroutcheva, Rush University Medical Center) and Lactobacillus gasseri ATCC 33323; all were grown for 18-24 h in DeMan, Rogosa and Sharpe broth (MRS Difco B D, Franklin Lakes, N.J., USA) under aerobic conditions at 37° C. For lactobacilli biofilm formation, MRS broth supplemented with 1% glucose and 2% sucrose (Fisher Scientific, Waltham, Mass., USA) was utilized.
This assay was performed according to Algburi et al. (Algburi et al., 2015. Path Dis 73(5)) with minor modifications: the overnight-grown G. vaginalis was diluted to approximately 10^7 CFU/ml. For the biofilm formation assay, aliquots of 200 μl were added into a 96-well tissue culture microplate, sealed by amplification tape (Nalge Nunc International, Rochester, N.Y., USA) and incubated for 24-36 h at 37° C. After incubation, the planktonic cells were removed by gently washing the biofilm twice with 200 μl of fresh broth. The biofilm was then treated with 200 μl of a predetermined concentration of the tested compound. The microplate was incubated for 24 h at 37° C. under anaerobic conditions. After incubation, the antimicrobials (supernatant) were discarded and the biofilm was washed twice with fresh BHIG broth. The biofilm was then disrupted by vigorous pipetting, in order to determine the number of biofilm-associated cells using the spot plate method.

biofilms of G. vaginalis = assay: Checkerboard assay, biofilm cells; assay type: cell-based, Gardnerella vaginalis; conditions: for MBC-B of CAm in combination with metronidazole: 24 h
Experimental: For biofilm formation, the overnight culture of G. vaginalis was diluted to approximately 10^7 CFU/ml and 200 μl was transferred into a 96-well tissue culture microplate and incubated anaerobically at 37° C. for 24-36 h. Following biofilm formation and removal of non-adherent cells by washing the biofilm twice with BHIG, each antimicrobial was diluted twofold separately with BHIG broth into two 96-white deep-well microplates. From each dilution of antimicrobial B, 125 μL was added horizontally over 125 μL of antimicrobial A (see FIG. 1 of Algburi et al., 2015. Path Dis 73(5)). From each combination, 200 μL samples were added to the biofilm in sequence, and the microplate was incubated for 24 h at 37° C. under anaerobic conditions. The spot plate method was utilized for counting the number of CFU/ml and evaluating the bactericidal activity (MBC-B) of each antimicrobial combination against biofilm-associated G. vaginalis. Isobolograms were used to analyze the nature of antimicrobial interaction, which is classified as synergistic, antagonistic or additive activity against the planktonic and biofilm cells.
Isobolograms were used to compare the MIC and MBC-B values of each antimicrobial alone with its MIC and MBC-B values in combination with other antimicrobials. The point on the axis (X) refers to MIC or MBC-B values of the first antimicrobial with the coordinates (0, x), and the point on the axis (Y) represents the MIC or MBC-B values of the second antimicrobial with the coordinates (y, 0) when they used alone. The two MIC or MBCs-B values are connected by a dashed line (Turovskiy Y, Chikindas M L. 2011 Probiotics Antimicrob Proteins 3:144-149). The MICs or MBCs-B of each antimicrobial combination are plotted as dots on the graph. Results are expressed according to the locations of these dots from the line that connects MICs or MBCs-B of the first and second antimicrobials. When MICs or MBCs-B values are located under the line, the two combining antimicrobials are synergized, but antagonized against the tested microorganism when these dots of interaction are above. An additive effect is observed when these dots are located on the line.

Structure (SMILES): CCCCCCCCCCOC(C(=O)NCCN)C(OCCCCCCCCCC)C(=O)NCCN.Cl.Cl (stereo not drawn) [5b]
- MIC S. typhimurium (G−) [1]: 3.9 µg/mL
- MBC-B L. rhamnosus (L. rhamnosus biofilm): >850 µM
- MBC-B of CAm when used alone (biofilms of G. vaginalis): 340 µM
- MBC-B of CAm in combination with metronidazole (biofilms of G. vaginalis): 25.7 µM

Structure (SMILES): CCCCCCCC(=O)OC(C(=O)NCCN)C(OC(=O)CCCCCCC)C(=O)NCCN.Cl.Cl (stereo not drawn) [8a]
- MIC S. typhimurium (G−) [1]: 62.5 µg/mL
- MBC-B L. rhamnosus (L. rhamnosus biofilm): >890 µM
- MBC-B of CAm when used alone (biofilms of G. vaginalis): 92.7 µM
- MBC-B of CAm in combination with metronidazole (biofilms of G. vaginalis): 26.9 µM

Structure (SMILES): CCCCCCCCCC(=O)OC(C(=O)NCCN)C(OC(=O)CCCCCCCCC)C(=O)NCCN.Cl.Cl (stereo not drawn) [8b]
- MIC S. typhimurium (G−) [1]: 3.9 µg/mL
- MBC-B L. rhamnosus (L. rhamnosus biofilm): >810 µM
- MBC-B of CAm when used alone (biofilms of G. vaginalis): 67.7 µM
- MBC-B of CAm in combination with metronidazole (biofilms of G. vaginalis): 6.3 µM
